Patent US20250034110A1, “LPAR1 ANTAGONISTS AND USES THEREOF” (Pipeline Therapeutics, Inc., priority 2021, published 2025)

Target: human LPAR1 (Homo sapiens, UniProt Q92633)
Assay: In vitro functional assay of lysophosphatidic acid receptor 1 activity (calcium flux)
Type: cell-based
Details: B103 cells stably expressing human LPAR1; calcium flux (Fluo-4 NW) after lysophosphatidic acid (18:1) at EC80; 100 pM to 10 μM; read-out: LPAR1 IC50

human LPAR1, sequence (Q92633 whole entry): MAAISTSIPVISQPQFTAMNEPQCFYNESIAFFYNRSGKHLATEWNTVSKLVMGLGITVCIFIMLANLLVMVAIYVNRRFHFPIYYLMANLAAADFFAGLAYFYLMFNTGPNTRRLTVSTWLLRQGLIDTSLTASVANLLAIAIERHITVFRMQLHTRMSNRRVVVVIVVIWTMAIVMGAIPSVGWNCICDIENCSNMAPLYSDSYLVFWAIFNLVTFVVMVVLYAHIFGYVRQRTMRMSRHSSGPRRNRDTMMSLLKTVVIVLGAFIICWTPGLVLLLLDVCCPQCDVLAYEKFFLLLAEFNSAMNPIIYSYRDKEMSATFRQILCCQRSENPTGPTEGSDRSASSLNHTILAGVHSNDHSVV

Row | IC50 [µM] | Compound
1 | 0.1 to 1 | CC(C)Oc1cc(C(F)F)ncc1NC(=O)N(c1ccccc1C(C)C)[C@H]1CC[C@H](C(=O)O)CC1 [Example 295, (1r,4r)-4-(3-(6-(difluoromethyl)-4-isopropoxypyridin-3-yl)-1-(2-isopropylphenyl)ureido)cyclohexane-1-carboxylic acid]
2 | 0.1 to 1 | [2H]C([2H])([2H])Oc1cc(C(F)F)ncc1NC(=O)N(c1ccccc1C(C)C)[C@H]1CC[C@H](C(=O)O)CC1 [Example 296, (1r,4r)-4-(3-(6-(difluoromethyl)-4-(methoxy-d3)pyridin-3-yl)-1-(2-isopropylphenyl)ureido)cyclohexane-1-carboxylic acid]
3 | 0.01 to 0.1 | CC(C)c1ccccc1N(C(=O)Nc1ccc(Cl)cn1)[C@H]1CC[C@H](C(=O)O)CC1 [Example 297, (1r,4r)-4-(3-(5-chloropyridin-2-yl)-1-(2-isopropylphenyl)ureido)cyclohexane-1-carboxylic acid]
4 | < 0.01 | CC(C)c1ccccc1N(C(=O)Nc1cc(F)c(F)cc1OC(F)F)[C@H]1CC[C@H](C(=O)O)CC1 [Example 298, (1r,4r)-4-(3-(2-(difluoromethoxy)-4,5-difluorophenyl)-1-(2-isopropylphenyl)ureido)cyclohexane-1-carboxylic acid]
5 | < 0.01 | COc1cc(Br)c(F)cc1NC(=O)N(c1ccccc1C(C)C)[C@H]1CC[C@H](C(=O)O)CC1 [Example 299, (1r,4r)-4-(3-(4-bromo-5-fluoro-2-methoxyphenyl)-1-(2-isopropylphenyl)ureido)cyclohexane-1-carboxylic acid]
6 | 0.1 to 1 | COc1cc(F)c(Cl)cc1NC(=O)N(c1ccccc1C(C)C)[C@H]1CC[C@H](C(=O)O)CC1 [Example 300, (1r,4r)-4-(3-(5-chloro-4-fluoro-2-methoxyphenyl)-1-(2-isopropylphenyl)ureido)cyclohexane-1-carboxylic acid]
7 | 0.01 to 0.1 | Cc1ccc(NC(=O)N(c2ccccc2C(C)C)[C@H]2CC[C@@H](C(=O)O)C2)c(OC(F)F)n1 [Example 301]
8 | 0.01 to 0.1 | Cc1ccc(NC(=O)N(c2ccccc2C(C)C)[C@@H]2CC[C@H](C(=O)O)C2)c(OC(F)F)n1 [Example 302]
9 | < 0.01 | Cc1ccc(NC(=O)N(c2ccccc2C(C)C)[C@@H]2CC[C@@H](C(=O)O)C2)c(OC(F)F)n1 [Example 303]
10 | < 0.01 | Cc1ccc(NC(=O)N(c2ccccc2C(C)C)[C@H]2CC[C@H](C(=O)O)C2)c(OC(F)F)n1 [Example 304]
11 | 0.01 to 0.1 | Cc1cc(OC(F)F)c(NC(=O)N(c2ccccc2C(C)C)[C@H]2C[C@@H](CC(=O)O)C2)cn1 [Example 305]
12 | 0.1 to 1 | CC(C)c1ccccc1N(C(=O)Nc1ccc(Cl)cn1)[C@H]1C[C@@H](CC(=O)O)C1 [Example 306]
13 | 0.1 to 1 | COc1cc(C(F)F)ncc1NC(=O)N(c1ccccc1C(C)C)[C@H]1C[C@@H](CC(=O)O)C1 [Example 307]
14 | 0.1 to 1 | Cc1ccc(NC(=O)N(c2ccccc2C(C)C)[C@H]2CC[C@@](C)(C(=O)O)CC2)c(OC(F)F)n1 [Example 308]
15 | < 0.01 | Cc1ccc(NC(=O)N(c2ccccc2C(C)C)[C@H]2CC[C@](C)(C(=O)O)CC2)c(OC(F)F)n1 [Example 309]
16 | 0.01 to 0.1 | COc1ccc(NC(=O)N(c2ccccc2C(C)C)[C@H]2CC[C@H](C(=O)O)CC2)c(OCCF)n1 [Example 315, (1r,4r)-4-(3-(2-(2-fluoroethoxy)-6-methoxypyridin-3-yl)-1-(2-isopropylphenyl)ureido)cyclohexane-1-carboxylic acid]
17 | 0.01 to 0.1 | COC[C@H](C)Oc1nc(C)ccc1NC(=O)N(c1ccccc1C(C)C)[C@H]1CC[C@H](C(=O)O)CC1 [Example 316, trans-4-(1-(2-isopropylphenyl)-3-(2-(((S)-1-methoxypropan-2-yl)oxy)-6-methylpyridin-3-yl)ureido)cyclohexane-1-carboxylic acid]
18 | 0.1 to 1 | COC[C@H](C)Oc1cc(C)ncc1NC(=O)N(c1ccccc1C(C)C)[C@H]1CC[C@H](C(=O)O)CC1 [Example 317, trans-4-(1-(2-isopropylphenyl)-3-(4-(((S)-1-methoxypropan-2-yl)oxy)-6-methylpyridin-3-yl)ureido)cyclohexane-1-carboxylic acid]
19 | 0.1 to 1 | COCc1ccc(NC(=O)N(c2ccccc2C(C)C)[C@H]2CC[C@H](C(=O)O)CC2)c(OCC(F)F)n1 [Example 318, (1r,4r)-4-(3-(2-(2,2-difluoroethoxy)-6-(methoxymethyl)pyridin-3-yl)-1-(2-isopropylphenyl)ureido)cyclohexane-1-carboxylic acid]

Row | IC50 [µM] | Compound
20 | 0.01 to 0.1 | CC(C)c1ccccc1N(C(=O)Nc1ccc(O)nc1OC(F)F)[C@H]1CC[C@H](C(=O)O)CC1 [Example 320]
21 | < 0.01 | COc1ccc(NC(=O)N(c2ccccc2C(C)C)[C@H]2CC[C@@](O)(C(F)(F)C(=O)O)CC2)c(OC(F)F)n1 [Example 321, 2-((1r,4r)-4-(3-(2-(difluoromethoxy)-6-methoxypyridin-3-yl)-1-(2-isopropylphenyl)ureido)-1-hydroxycyclohexyl)-2,2-difluoroacetic acid]
22 | < 0.01 | COc1ccc(NC(=O)N(c2ccccc2C(C)C)[C@H]2CC[C@](O)(C(F)(F)C(=O)O)CC2)c(OC(F)F)n1 [Example 322, 2-((1s,4s)-4-(3-(2-(difluoromethoxy)-6-methoxypyridin-3-yl)-1-(2-isopropylphenyl)ureido)-1-hydroxycyclohexyl)-2,2-difluoroacetic acid]
23 | < 0.01 | COc1ccc(NC(=O)N(c2ccccc2C(C)C)[C@H]2C[C@@](O)(C(F)(F)C(=O)O)C2)c(OC(F)F)n1 [Example 323]
24 | < 0.01 | COc1ccc(NC(=O)N(c2ccccc2C(C)C)[C@H]2C[C@](O)(C(F)(F)C(=O)O)C2)c(OC(F)F)n1 [Example 324]
25 | < 0.01 | Cc1ccc(NC(=O)N(c2ccccc2C(C)C)[C@H]2CC[C@](O)(C(F)(F)C(=O)O)CC2)c(OC(F)F)n1 [Example 326]
26 | < 0.01 | COc1cc(C)ccc1NC(=O)N(c1ccccc1C(C)C)[C@H]1CC[C@H](C(=O)O)CC1 [Example 327, (1r,4r)-4-(1-(2-isopropylphenyl)-3-(2-methoxy-4-methylphenyl)ureido)cyclohexane-1-carboxylic acid]
27 | 0.01 to 0.1 | COc1cc(C)c(Cl)cc1NC(=O)N(c1ccccc1C(C)C)[C@H]1CC[C@H](C(=O)O)CC1 [Example 328, (1r,4r)-4-(3-(5-chloro-2-methoxy-4-methylphenyl)-1-(2-isopropylphenyl)ureido)cyclohexane-1-carboxylic acid]
28 | < 0.01 | CC(C)c1ccccc1N(C(=O)Nc1cc(F)c(F)cc1OC(F)F)[C@H]1C[C@@H](CC(=O)O)C1 [Example 329]
29 | < 0.01 | COc1cc(Cl)c(F)cc1NC(=O)N(c1ccccc1C(C)C)[C@H]1C[C@@H](CC(=O)O)C1 [Example 330]
30 | < 0.01 | CC(C)c1ccccc1N(C(=O)Nc1cc(F)c(Cl)cc1OCC(F)F)[C@H]1C[C@@H](CC(=O)O)C1 [Example 331]
31 | 0.01 to 0.1 | COc1ccc(NC(=O)N(c2ccccc2C(C)C)[C@H]2C[C@@H](CC(=O)O)C2)c(OCC(F)F)n1 [Example 332]
32 | < 0.01 | COc1cc(Cl)c(F)cc1NC(=O)N(c1ccccc1C(C)C)[C@H]1CC[C@H](C(=O)O)CC1 [Example 333, (1r,4r)-4-(3-(4-chloro-5-fluoro-2-methoxyphenyl)-1-(2-isopropylphenyl)ureido)cyclohexane-1-carboxylic acid]
33 | < 0.01 | CC(C)c1ccccc1N(C(=O)Nc1cc(F)c(Cl)cc1OCC(F)F)[C@H]1CC[C@H](C(=O)O)CC1 [Example 334, (1r,4r)-4-(3-(4-chloro-2-(2,2-difluoroethoxy)-5-fluorophenyl)-1-(2-isopropylphenyl)ureido)cyclohexane-1-carboxylic acid]
34 | 0.01 to 0.1 | Cc1ccc(NC(=O)N(c2ccccc2C(C)C)[C@H]2CC[C@H](C(=O)O)CC2)c(OCC(F)F)n1 [Example 335, (1r,4r)-4-(3-(2-(2,2-difluoroethoxy)-6-methylpyridin-3-yl)-1-(2-isopropylphenyl)ureido)cyclohexane-1-carboxylic acid]
35 | 0.01 to 0.1 | CC(C)c1ccccc1N(C(=O)Nc1ncc(Cl)cc1OC(F)F)[C@H]1CC[C@H](C(=O)O)CC1 [Example 336, (1r,4r)-4-(3-(5-chloro-3-(difluoromethoxy)pyridin-2-yl)-1-(2-isopropylphenyl)ureido)cyclohexane-1-carboxylic acid]
36 | 0.01 to 0.1 | Cc1ccc(NC(=O)N(c2ccccc2C(C)C)[C@H]2CC[C@H](C(=O)O)CC2)c(OCCF)n1 [Example 338, (1r,4r)-4-(3-(2-(2-fluoroethoxy)-6-methylpyridin-3-yl)-1-(2-isopropylphenyl)ureido)cyclohexane-1-carboxylic acid]
37 | 0.01 to 0.1 | COC[C@H](C)Oc1nc(OC)ccc1NC(=O)N(c1ccccc1C(C)C)[C@H]1CC[C@H](C(=O)O)CC1 [Example 339, trans-4-(1-(2-isopropylphenyl)-3-(6-methoxy-2-(((S)-1-methoxypropan-2-yl)oxy)pyridin-3-yl)ureido)cyclohexane-1-carboxylic acid]
38 | 0.01 to 0.1 | COc1ccc(NC(=O)N(c2ccccc2C(C)C)[C@H]2CC[C@](C)(C(=O)O)CC2)c(OC(F)F)n1 [Example 340]
